Assay results published in patent US20070105114A1, “Biomarkers of cyclin-dependent kinase modulation” (priority 2003, published 2007).
Counter-ions that a name gives are not always drawn.

Tested on: W28729
Assay: Clinical study CA174-001 (1 hr infusion), W28729 expression in patient PBMC by RT-PCR
Type: in vivo, human
Conditions: patients
Procedure: Patient inclusion criteria: The patient inclusion criteria included: primary solid malignancy refractory to current therapy and adequate bone marrow, hepatic, and renal function. Treatments: Two different treatments were undertaken: (i) 174-001 Study: 1 hr infusion of BMS-387032 q 3 wks; and (ii) 174-002 Study: 24 hr infusion of BMS-387032 q 3 wks. The sampling times were pre-dose, and 2, 6, 24 hour post-dose. W28729 Expression Analysis: RT-PCR. Patient blood samples were collected in PAXgene™ Blood Collection Tubes (Qiagen, catalog #762155). Total RNA was isolated following the manufacturer's instructions using a PAXgene™ blood RNA Kit (Qiagen, catalog #762134). W28729 and GAPDH (housekeeping gene) RNA abundance was measured by Taqman assays, using an ABI PRISM 7900 HT Sequence Detection System. W28729 abundance was normalized relative to GAPDH. Primer and probe sequences are as shown below.

CC(C)(C)c1cnc(CSc2cnc(NC(=O)C3CCNCC3)s2)o1 [cdk2 inhibitor, N-5-[[5-(1,1-Dimethylethyl)-2-oxazolyl]methyl]thio]-2-thiazolyl-4-piperidinecarboxamide, 0.5-L-tartaric acid salt]
time of return of W28729 to baseline levels (1 hour infusion): ≤ 6 h | W28729 induction in PBMC (1 hour infusion, at 2 hours): transient induction of W28729 | relationship between W28729 gene induction and dose or exposure (AUC) (CA174-001): linear relationship
